As usually defined, the EC50 is the concentration at which the effect is half-maximal. Low readings indicate a more potent agent, high ones a less potent agent.

Our source for the EC50 and activation values is patent publication US5914339A, “Substituted 1,3-benzodioxoles” (American Home Products Corporation, priority 1997, dated 1999).

Counter-ions that a name gives are not always drawn.

human β2 adrenergic receptor, sequence (P07550 whole entry): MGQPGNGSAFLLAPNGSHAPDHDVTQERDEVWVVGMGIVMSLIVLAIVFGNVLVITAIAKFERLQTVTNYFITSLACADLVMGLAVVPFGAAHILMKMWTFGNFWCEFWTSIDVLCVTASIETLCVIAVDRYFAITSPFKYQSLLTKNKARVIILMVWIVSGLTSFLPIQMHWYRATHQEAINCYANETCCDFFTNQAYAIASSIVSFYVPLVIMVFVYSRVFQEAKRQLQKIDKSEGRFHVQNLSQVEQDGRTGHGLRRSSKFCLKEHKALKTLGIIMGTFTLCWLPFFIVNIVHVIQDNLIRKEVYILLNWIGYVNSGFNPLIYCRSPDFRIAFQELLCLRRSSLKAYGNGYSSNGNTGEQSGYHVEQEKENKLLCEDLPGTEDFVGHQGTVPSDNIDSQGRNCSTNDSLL

One test has as its target human β2 adrenergic receptor (Homo sapiens, UniProt P07550). The test is described as follows: cell-based.
Settings: not given
On the procedure:
The activity of the test compounds on human β-adrenergic receptors was determined with Chinese hamster ovary (CHO) cells transfected with human β2, or β1 adrenergic receptors. Agonist activity is indicated by increased cAMP levels in the CHO cells. Selectivity of the test compounds for the β3 receptor was assessed by comparison with results in β2 and β1 adrenergic receptor transfected cells.
1). Chinese hamster ovary (CHO) cells transfected with human β2, or β1 adrenergic receptors were used in the assay.
2). Cells were grown to confluent conditions in 24 well plates.
3). Drugs were dissolved in DMSO at a concentration of 10 μM.
4). Cells were incubated with drug at 10 nM concentration for 10 min at 37° C.
5). Cell cAMP concentrations were assayed using a scintillation proximity assay kit from Amersham Corp., Chicago, Ill.
6). Activities for the test compounds are expressed as a percentage of the isoproterenol response.
Production of the CHO cells transfected with human β2, or β1 adrenergic receptors, and compound test procedures utilizing the CHO cells, are described by Emorine et al. in their article "Molecular Characterization of the Human Beta3 -Adrenergic Receptor", Science 1989, 245(8), 1118-1121 and by Muzzin et al. in the article "An Adipose Tissue-Specific Beta3 -Adrenergic Receptor", J. Biol. Chem.1991, 266, 24053-24058.
^a Human β receptors expressed in Chinese hamster ovary cells,
compounds tested at 10 nM, results expressed as % of isoproterenol
activity (increase in cAMP) at 10 μM. EC50 (μM) values
determined for selected compounds.
`CC(Cc1ccc2c(c1)OC(C(=O)O)(C(=O)OCC1CC1)O2)NCC(O)c1cccc(Cl)c1` (centres unmarked) [Example 69, 5-{2-[2-(3-Chloro-phenyl)-2-hydroxy-ethylamino]-propyl}-benzo[1,3]dioxole-2,2-dicarboxylic acid cyclopropylmethyl ester] showed a concentration for a half-maximal effect (EC50) of 79 nM.

Staying with this test, now noted: 10 min; compounds tested at 10 nM, isoproterenol at 10 μM; CHO cells, 10 min at 37° C; read-out: β2: % of isoproterenol activity (increase in cAMP).
`CC(Cc1ccc2c(c1)OC(C(=O)OCC(=O)OC(C)C)(C(=O)OCC(=O)OC(C)C)O2)NCC(O)c1cccc(Cl)c1` (centres unmarked) [Example 27, 5-{2-[2-(3-Chloro-phenyl)-2-hydroxy-ethylamino]-propyl}-benzo[1,3]dioxole-2,2-dicarboxylic acid bis-isopropoxycarbonylmethyl ester]: the activation at 0.01 µM worked out at 5%. On to `CC(OC(=O)OC1CCCCC1)OC(=O)C1(C(=O)OC(C)OC(=O)OC2CCCCC2)Oc2ccc(C[C@@H](C)NC[C@H](O)c3cccc(Cl)c3)cc2O1` (stereo partly drawn) [Example 59, 5-{(2R)-2-[(2R)-2-(3-Chloro-phenyl)-2-hydroxy-ethylamino]-propyl}-benzo[1,3]dioxole-2,2-dicarboxylic acid bis-[1-(cyclohexyloxycarbonyloxy)-ethyl] ester], for which the activation at 0.01 µM was 10%. For the molecule `C[C@H](Cc1ccc2c(c1)OC(C(=O)OCC1CCCO1)(C(=O)OCC1CCCO1)O2)NC[C@H](O)c1cccc(Cl)c1` (stereo partly drawn) [Example 91, 5-{(2R)-2-[(2R)-2-(3-Chloro-phenyl)-2-hydroxy-ethylamino]-propyl}-benzo[1,3]dioxole-2,2-dicarboxylic aicd bis-(tetrahydro-furan-2-ylmethyl) ester], the activation at 0.01 µM turned out to be 7%.

Consider `CCCOC(=O)COC(=O)C1(C(=O)OCC(=O)OCCC)Oc2ccc(CC(C)NCC(O)c3cccc(Cl)c3)cc2O1` (centres unmarked) [Example 25, 5-{2-[2-(3-Chloro-phenyl)-2-hydroxy-ethylamino]-propyl}-benzo[1,3]dioxole-2,2-dicarboxylic acid bis-propoxycarbonylmethyl ester], for which the activation at 0.01 µM turned out to be 6%. Same read-out and setting: next, `CCC(C)(C)C(=O)OCOC(=O)C1(C(=O)OCOC(=O)C(C)(C)CC)Oc2ccc(CC(C)NCC(O)c3cccc(Cl)c3)cc2O1` (centres unmarked) [Example 58, 5-{2-[2-(3-Chloro-phenyl)-2-hydroxyethylamino]propyl}benzo[1,3] dioxole-2,2-dicarboxylic acid bis-(2,2-dimethyl-butyryloxymethyl) ester]: 8%; `CC(Cc1ccc2c(c1)OC(C(=O)OCOC(=O)CC(C)(C)C)(C(=O)OCOC(=O)CC(C)(C)C)O2)NCC(O)c1cccc(Cl)c1` (centres unmarked) [Example 53, 5-{2-[2-(3-Chloro-phenyl)-2-hydroxyethylamino]propyl}benzo[1,3] dioxole-2,2-dicarboxylic acid bis-(3,3-dimethyl-butyryloxymethyl) ester]: 2%.

Take `CC(C)CCC(=O)OCOC(=O)C1(C(=O)OCOC(=O)CCC(C)C)Oc2ccc(CC(C)NCC(O)c3cccc(Cl)c3)cc2O1` (centres unmarked) [Example 47, 5-{2-[2-(3-Chloro-phenyl)-2-hydroxyethylamino]propyl}benzo[1,3] dioxole-2,2-dicarboxylic acid bis-(4-methyl-pentanoyloxymethyl) ester]: the activation at 0.01 µM worked out at 0%. Same read-out and setting: next, `CC(Cc1ccc2c(c1)OC(C(=O)OCOC(=O)CCC1CCCC1)(C(=O)OCOC(=O)CCC1CCCC1)O2)NCC(O)c1cccc(Cl)c1` (centres unmarked) [Example 55, 5-{2-[2-(3-Chloro-phenyl)-2-hydroxy-ethylamino]propyl}benzo[1,3]dioxole-2,2-dicarboxylic acid bis-(3-cyclopentyl-propionyloxymethyl) ester]: 0%. On the same count and under the same terms, the value for `CCC(=O)OCOC(=O)C1(C(=O)OCOC(=O)CC)Oc2ccc(CC(C)NCC(O)c3cccc(Cl)c3)cc2O1` (centres unmarked) [Example 43, 5-{2-[2-(3-Chloro-phenyl)-2-hydroxyethylamino]propyl}benzo[1,3] dioxole-2,2-dicarboxylic acid bis-propionyloxymethyl ester] was 0%. Still for that read-out and setting: next, `CCOC(=O)COC(=O)C1(C(=O)OCC(=O)OCC)Oc2ccc(CC(C)NCC(O)c3cccc(Cl)c3)cc2O1` (centres unmarked) [Example 28, 5-{2-[2-(3-Chloro-phenyl)-2-hydroxy-ethylamino]-propyl}-benzo[1,3]dioxole-2,2-dicarboxylic acid bis-ethoxycarbonylmethyl ester]: 2%.

For `CCCCCCOC(=O)C1(C(=O)OCCCCCC)Oc2ccc(CC(C)NCC(O)c3cccc(Cl)c3)cc2O1` (centres unmarked) [Example 14, 5-{2-[2-(3-Chloro-phenyl)-2-hydroxy-ethylamino]-propyl}-benzo[1,3]dioxole-2,2-dicarboxylic acid dihexyl ester], the activation at 0.01 µM is 5%.

On to `CCC(CC)COC(=O)C1(C(=O)OCC(CC)CC)Oc2ccc(C[C@@H](C)NC[C@H](O)c3cccc(Cl)c3)cc2O1` [Example 74, 5-{(2R)-2-[(2R)-2-(3-Chloro-phenyl)-2-hydroxy-ethylamino]-propyl}-benzo[1,3]dioxole-2,2-dicarboxylic acid bis-(2-ethylbutyl) ester], for which the activation at 0.01 µM is 0%. Same read-out and setting: next, `CCN(CC)C(=O)COC(=O)C1(C(=O)OCC(=O)N(CC)CC)Oc2ccc(C[C@@H](C)NC[C@H](O)c3cccc(Cl)c3)cc2O1` [Example 68, 5-{(2R)-2-[(2R)-2-(3-Chloro-phenyl)-2-hydroxy-ethylamino]-propyl}-benzo[1,3]dioxole-2,2-dicarboxylic acid bis-diethylcarbamoylmethyl ester]: 5%. On the same count and under the same terms, next, `CCOC(=O)C(C)OC(=O)C1(C(=O)OC(C)C(=O)OCC)Oc2ccc(CC(C)NCC(O)c3cccc(Cl)c3)cc2O1` (centres unmarked) [Example 29, 5-{2-[2-(3-Chloro-phenyl)-2-hydroxy-ethylamino]-propyl}-benzo[1,3]dioxole-2,2-dicarboxylic acid bis-(1-ethoxycarbonyl-ethyl) ester]: 2%. Still for that read-out and setting: next, `COC(=O)C(C)OC(=O)C1(C(=O)OC(C)C(=O)OC)Oc2ccc(CC(C)NCC(O)c3cccc(Cl)c3)cc2O1` (centres unmarked) [Example 26, 5-{2-[2-(3-Chloro-phenyl)-2-hydroxy-ethylamino]-propyl}-benzo[1,3]dioxole-2,2-dicarboxylic acid bis-(1-methoxycarbonyl-ethyl) ester]: 7%; `CC(Cc1ccc2c(c1)OC(C(=O)OCOC(=O)c1ccccc1)(C(=O)OCOC(=O)c1ccccc1)O2)NCC(O)c1cccc(Cl)c1` (centres unmarked) [Example 56, 5-{2-[2-(3-Chloro-phenyl)-2-hydroxy-ethylamino]propyl}benzo[1,3]dioxole-2,2-dicarboxylic acid bis-benzoyloxymethyl ester]: 8%.

For `CC(Cc1ccc2c(c1)OC(C(=O)OC(C)OC(=O)c1ccccc1)(C(=O)OC(C)OC(=O)c1ccccc1)O2)NCC(O)c1cccc(Cl)c1` (centres unmarked) [Example 57, 5-{2-[2-(3-Chloro-phenyl)-2-hydroxyethylamino]propyl}benzo[1,3] dioxole-2,2-dicarboxylic acid bis-(benzoyloxy-ethyl) ester], the activation at 0.01 µM was found to be 0%. For the molecule `CCCCCCCCOC(=O)C1(C(=O)OCCCCCCCC)Oc2ccc(CC(C)NCC(O)c3cccc(Cl)c3)cc2O1` (centres unmarked) [Example 12, 5-{2-[2-(3-Chloro-phenyl)-2-hydroxy-ethylamino]-propyl}-benzo[1,3]dioxole-2,2-dicarboxylic acid dioctyl ester], the activation at 0.01 µM worked out at 1%. Same read-out and setting: next, `CC(Cc1ccc2c(c1)OC(C(=O)OCC1(C)CC1)(C(=O)OCC1(C)CC1)O2)NCC(O)c1cccc(Cl)c1` (centres unmarked) [Example 39, 5-{2-[2-(3-Chloro-phenyl)-2-hydroxy-ethylamino]-propyl}-benzo[1,3]dioxole-2,2-dicarboxylic acid bis-(1-methyl-cyclopropylmethyl) ester]: 1%.

The same test, now with this note: CHO, 10 min, read-out: β2: % of isoproterenol activity (increase in cAMP).
Regarding `Cc1cccc(CCOC(=O)C2(C(=O)OCCc3cccc(C)c3)Oc3ccc(C[C@@H](C)NC[C@H](O)c4cccc(Cl)c4)cc3O2)c1` [Example 97, 5-{(2R)-2-[(2R)-2-(3-Chloro-phenyl)-2-hydroxy-ethylamino]-propyl}-benzo[1,3]dioxole-2,2-dicarboxylic acid bis-(2-m-tolyl-ethyl) ester hydrochloride salt], the activation at 0.01 µM was determined as 4%. Still for that read-out and setting: next, `C[C@H](Cc1ccc2c(c1)OC(C(=O)OCCc1cccc(Br)c1)(C(=O)OCCc1cccc(Br)c1)O2)NC[C@H](O)c1cccc(Cl)c1` [Example 96, 5-{(2R)-2-[(2R)-2-(3-Chloro-phenyl)-2-hydroxy-ethylamino]-propyl}-benzo[1,3]dioxole-2,2-dicarboxylic acid bis-[2-(3-bromo-phenyl)-ethyl]ester hydrochloride salt]: 1%. Take `COCCOC(=O)C1(C(=O)OCCOC)Oc2ccc(CC(C)NCC(O)c3cccc(Cl)c3)cc2O1` (centres unmarked) [Example 1, 5-{2-[2-(3-Chloro-phenyl)-2-hydroxy-ethylamino]-propyl}-benzo[1,3]dioxole-2,2-dicarboxylic acid bis-(2-methoxy-ethyl) ester hydrochloride salt]: the activation at 0.01 µM was 4%.
